In patent US20230372569A1 (priority 2020, published 2023):

Key:
Salmonella enterica = test: Deactivation kinetics (Weibull model) with PAA, with and without UVC; assay type: cell-based
From the text: (§1) In most cases, especially for the PAA+UVC combination, they are nonlinear in coordinates log10[CFU]:-t. Formally it means that it was not a classical first-order reaction. The first-order model assumes that the cells and spores in a population have the same resistance and that the relationship between the decline in the number of survivors over the treatment time is linear. The model can be written as log10(N/N0)=−kt, where N0 is the initial number of cells (CFU/ml), N is the number of survivors after an exposure time t (CFU/ml), k is the rate parameter, and t is the treatment time (min). The D value, a typical index of inactivation kinetics, is the decimal reduction time in minutes (time required to kill 90% of the organisms).
(§2) The Weibull model assumes that the survival curve is a cumulative distribution of lethal effects. The cumulative form of the Weibull distribution is given by log10(N/N0)=[…], where b and n are the scale and shape parameters, respectively. When the shape parameter n is greater than or less than 1, the shape of the survival curve will present a shoulder or tailing, respectively. When n=1, the cumulative form of the Weibull distribution reduces to the first-order rate equation. For the Weibull model, the parameter td, which is analogous to the traditional D value, can be determined. td is the time required for d log reductions of the number of microorganisms and was calculated by the parameters b and n as shown in the equation
(§3) where d is the desired log reduction, b=k and 2.303 is coefficient due to the shift from base e logarithms to base 10 ones.

Pseudomonas aeruginosa = test: as above; assay type: cell-based
From the text: as §1, §2, §3

Staphylococcus aureus = test: as above; assay type: cell-based
From the text: as §1, §2, §3

Candida albicans = test: as above; assay type: cell-based
From the text: as §1, §2, §3

[1] = acetic acid value given as TWA; cited from earlier work
[2] = test system: Clostridium difficile ATCC43539; test: Room decontamination test, inoculated dirty petri dishes (5% horse serum), two hours; assay type: cell-based; details: 5% w/w peracetic acid solution, 66 m^3 room
Experimental: A room of volume 66 m^3 (6 m×4.2 m (floor area)×2.6 m (height)) was used as a test room. The room was closed in the usual way, that a domestic, clinic or hospital room would be closed off by closing windows, doors and external vents and turning off any air-conditioning. However, the room was not hermetically sealed and a small amount of airflow was permissible. The temperature of the test room was ambient room temperature (between 20° C. and 25° C.).
A peracetic acid vapour/mist generator (nebulizer) was positioned along the smaller wall, at a height of about 1.21 m.
The peracetic acid vapour/mist generator utilised a commercially available 5% w/w peracetic acid solution. Peracetic acid is sold as an equilibrium mixture of hydrogen peroxide, acetic acid and water. 5% w/w Peracetic acid solution typically comprises 20-30% w/w hydrogen peroxide, 6-10% w/w acetic acid 4.5-5.4% w/w peracetic acid and the balance being water. In many embodiments of the present invention, the 5% w/w peracetic acid solution used comprised 24% w/w hydrogen peroxide, 7.5% w/w acetic acid 5% w/w peracetic acid and the balance being water.
The peracetic acid vapour/mist generator was also accompanied by a UV light that was located in the same housing. […] That is a known germicidal wavelength. The UV light shone upon all the exposed surfaces in the room. The UV lamp was 18 watts. The bulb used synthetic quartz to prevent escape of 185 nm ozone-forming radiation.
The UV-C light and peracetic acid vapour/mist generator could be operated independently or simultaneously, allowing for a direct comparison of the individual decontaminating agents with each other and with the combination.
Immediately before commencing sterilization, petri dishes containing inoculum were placed at three discrete locations within the room—one close to the UV/peracetic acid device (e.g. 80 cm from the device), one in the middle of the room and the other at the opposite end of the room. The dishes were also placed at differing heights. The petridishes were “dirty” and contained 5% horse serum. […] The number of microorganisms was counted. […]

| SMILES | D (decimal reduction time) (Salmonella enterica) [min] | k (Weibull deactivation constant) (Salmonella enterica) [h⁻¹] | n (Weibull shape parameter) (Salmonella enterica) | D (decimal reduction time) (Pseudomonas aeruginosa) [min] | k (Weibull deactivation constant) (Pseudomonas aeruginosa) [h⁻¹] | n (Weibull shape parameter) (Pseudomonas aeruginosa) | D (decimal reduction time) (Staphylococcus aureus) [min] | k (Weibull deactivation constant) (Staphylococcus aureus) [h⁻¹] | n (Weibull shape parameter) (Staphylococcus aureus) | D (decimal reduction time) (Candida albicans) [min] | k (Weibull deactivation constant) (Candida albicans) [h⁻¹] | n (Weibull shape parameter) (Candida albicans) | vapour safety level [1] [ppm] | Log reduction, Location 1 ([2]; Location 1 (close to device)) | Log reduction, Location 2 ([2]; Location 2 (middle of room)) | Log reduction, Location 3 ([2]; Location 3 (opposite end of room)) |
| --- | --- | --- | --- | --- | --- | --- | --- | --- | --- | --- | --- | --- | --- | --- | --- | --- |
| CC(=O)OO [Peracetic Acid only, Peracetic acid] | 70 | 0.2 | 1.24 | 168 | 0.052 | 1.5 | 223 | 0.055 | 1.13 | 37 | 0.45 | 1.25 | 0.17 | Log 0.71 log | log 0.97 | log 1.19 |
| CC(=O)O [acetic acid] |  |  |  |  |  |  |  |  |  |  |  |  | 10 |  |  |  |
